Reference: ChEMBL document CHEMBL1287784, “A facile 1,3-dipolar cycloaddition of azomethine ylides to 2-arylidene-1,3-indanediones: synthesis of dispiro-oxindolylpyrrolothiazoles and their antimycobacterial evaluation” (2010)
Values after ≈ are worked out from the molar mass of the structure shown.

test system: Mycobacterium tuberculosis; test: Antimycobacterial activity against Mycobacterium tuberculosis H37Rv by agar dilution method; format: functional

SMILES	MIC [µM]
O=C1c2ccccc2C(=O)C12[C@@H](c1ccccc1Cl)[C@@H]1CSCN1[C@@]21C(=O)Nc2ccccc21	25.7 (≈ 12.5 µg/mL)
O=C1c2ccccc2C(=O)C12[C@@H](c1ccccc1Br)[C@@H]1CSCN1[C@@]21C(=O)Nc2ccccc21	11.8 (≈ 6.27 µg/mL)
COc1cc([C@H]2[C@@H]3CSCN3[C@@]3(C(=O)Nc4ccc([N+](=O)[O-])cc43)C23C(=O)c2ccccc2C3=O)cc(OC)c1OC	10.6 (≈ 6.23 µg/mL)
CO[C@H]1/C=C/O[C@@]2(C)Oc3c(C)c(O)c4c(O)c(c(/C=N/N5CCN(C)CC5)c(O)c4c3C2=O)NC(=O)/C(C)=C\C=C\[C@H](C)[C@H](O)[C@@H](C)[C@@H](O)[C@@H](C)[C@H](OC(C)=O)[C@@H]1C [RIFAMPIN]	0.1 (≈ 0.0823 µg/mL)
COc1ccc([C@H]2[C@@H]3CSCN3[C@@]3(C(=O)Nc4ccc(Cl)cc43)C23C(=O)c2ccccc2C3=O)cc1	24.2 (≈ 12.5 µg/mL)
COc1ccc([C@H]2[C@@H]3CSCN3[C@@]3(C(=O)Nc4ccc(Cl)cc43)C23C(=O)c2ccccc2C3=O)cc1OC	22.9 (≈ 12.5 µg/mL)
O=C1c2ccccc2C(=O)C12[C@@H](c1ccc(Cl)cc1)[C@@H]1CSCN1[C@@]21C(=O)Nc2ccccc21	25.7 (≈ 12.5 µg/mL)
NNC(=O)c1ccncc1 [ISONIAZID]	0.4 (≈ 0.0549 µg/mL)
O=C1c2ccccc2C(=O)C12[C@@H](c1ccc(Cl)cc1)[C@@H]1CSCN1[C@@]21C(=O)Nc2ccc(Cl)cc21	2.99 (≈ 1.56 µg/mL)
O=C1c2ccccc2C(=O)C12[C@@H](c1ccccc1)[C@@H]1CSCN1[C@@]21C(=O)Nc2ccccc21	> 55.2
COc1ccc([C@H]2[C@@H]3CSCN3[C@@]3(C(=O)Nc4ccc([N+](=O)[O-])cc43)C23C(=O)c2ccccc2C3=O)cc1OC	11.2 (≈ 6.24 µg/mL)
COc1ccc([C@H]2[C@@H]3CSCN3[C@@]3(C(=O)Nc4ccccc43)C23C(=O)c2ccccc2C3=O)cc1	> 51.8
O=C1c2ccccc2C(=O)C12[C@@H](c1ccccc1)[C@@H]1CSCN1[C@@]21C(=O)Nc2ccc(Cl)cc21	25.7 (≈ 12.5 µg/mL)
O=C1c2ccccc2C(=O)C12[C@@H](c1cccc([N+](=O)[O-])c1)[C@@H]1CSCN1[C@@]21C(=O)Nc2ccccc21	25.1 (≈ 12.5 µg/mL)
O=C1c2ccccc2C(=O)C12[C@@H](c1ccccc1Cl)[C@@H]1CSCN1[C@@]21C(=O)Nc2ccc([N+](=O)[O-])cc21	5.9 (≈ 3.14 µg/mL)
COc1cc([C@H]2[C@@H]3CSCN3[C@@]3(C(=O)Nc4ccccc43)C23C(=O)c2ccccc2C3=O)cc(OC)c1OC	> 46.1

SMILES	MIC [µM]
O=C1Nc2ccc([N+](=O)[O-])cc2[C@]12N1CSC[C@H]1[C@H](c1cccc(Cl)c1Cl)[C@]21Cc2ccccc2C1=O	2.8 (≈ 1.55 µg/mL)
COc1cc([C@H]2[C@@H]3CSCN3[C@@]3(C(=O)Nc4ccc(Cl)cc43)C23C(=O)c2ccccc2C3=O)cc(OC)c1OC	21.7 (≈ 12.5 µg/mL)
O=C1c2ccccc2C(=O)C12[C@@H](c1ccccc1)[C@@H]1CSCN1[C@@]21C(=O)Nc2ccc([N+](=O)[O-])cc21	12.6 (≈ 6.27 µg/mL)
CC[C@@H](CO)NCCN[C@@H](CC)CO [ETHAMBUTOL]	7.6 (≈ 1.55 µg/mL)
CC(C)c1ccc([C@H]2[C@@H]3CSCN3[C@@]3(C(=O)Nc4ccc(Cl)cc43)C23C(=O)c2ccccc2C3=O)cc1	11.8 (≈ 6.24 µg/mL)
O=C1c2ccccc2C(=O)C12[C@@H](c1ccc(Br)cc1)[C@@H]1CSCN1[C@@]21C(=O)Nc2ccc([N+](=O)[O-])cc21	1.4 (≈ 0.807 µg/mL)
O=C1c2ccccc2C(=O)C12[C@@H](c1ccc(Cl)cc1)[C@@H]1CSCN1[C@@]21C(=O)Nc2ccc([N+](=O)[O-])cc21	2.9 (≈ 1.54 µg/mL)
COc1ccc([C@H]2[C@@H]3CSCN3[C@@]3(C(=O)Nc4ccc([N+](=O)[O-])cc43)C23C(=O)c2ccccc2C3=O)cc1	11.9 (≈ 6.28 µg/mL)
CC(C)c1ccc([C@H]2[C@@H]3CSCN3[C@@]3(C(=O)Nc4ccccc43)C23C(=O)c2ccccc2C3=O)cc1	25.3 (≈ 12.5 µg/mL)
Cc1ccccc1[C@H]1[C@@H]2CSCN2[C@@]2(C(=O)Nc3ccccc32)C12C(=O)c1ccccc1C2=O	53.6 (≈ 25 µg/mL)
O=C1c2ccccc2C(=O)C12[C@@H](c1ccccc1Cl)[C@@H]1CSCN1[C@@]21C(=O)Nc2ccc(Cl)cc21	6 (≈ 3.13 µg/mL)
O=C1c2ccccc2C(=O)C12[C@@H](c1cccc(Br)c1)[C@@H]1CSCN1[C@@]21C(=O)Nc2ccc([N+](=O)[O-])cc21	2.7 (≈ 1.56 µg/mL)
O=C1c2ccccc2C(=O)C12[C@@H](c1cccc(F)c1)[C@@H]1CSCN1[C@@]21C(=O)Nc2ccc([N+](=O)[O-])cc21	3 (≈ 1.55 µg/mL)
COc1ccc([C@H]2[C@@H]3CSCN3[C@@]3(C(=O)Nc4ccccc43)C23C(=O)c2ccccc2C3=O)cc1OC	> 48.8
O=C1c2ccccc2C(=O)C12[C@@H](c1ccccc1Br)[C@@H]1CSCN1[C@@]21C(=O)Nc2ccc(Cl)cc21	2.8 (≈ 1.58 µg/mL)
